Values joined by “and” are separate entries in the source; they are usually repeats but may differ in a detail not shown here. Equal entries are not always repeated.
How the values were obtained:
[1] = tested on: rat liver microsomes; assay: Inhibition of lipid peroxidation in rat liver microsomes treated with TBHP; format: biochemical, Wistar rat; conditions: FIG. 2; for IC50: 1 mg/ml microsomal protein, 37° C. 1 hour preincubation, 200 μM TBHP for 30 min
Experimental: One of the most well-known properties of the vitamin E components is their ability to prevent lipid peroxidation. See Traber et al. (2011) Free Radis Biol Med 51(5):1000-1013. Briefly, the antioxidant activity of vitamin E analogs was evaluated in rat liver microsomes by measuring inhibition of lipid peroxidation after TBHP ([…]) treatment. Wistar rat liver microsomes (BD Biosciences) were diluted in phosphate buffer, 0.1 M (pH 7.4), at the final protein concentration of 1 mg/ml. The microsomes were treated with different concentrations of tocols (diluted with DMSO) and incubated at 37° C. for 1 hour before inducing lipid peroxidation with 200 μM TBHP (DMSO) for 30 min.

[2] = tested on: Mouse NSC 34 cells; assay: Cell uptake of tocols by NSC 34 cells (GC/MS); format: cell-based; conditions: final concentration 5 μM, 0-24 hours, FIG. 1
Experimental: The experiment was carried out as described below. Mouse NSC 34 cells were grown in Dulbecco's modified Eagle's medium (DMEM) supplemented with 10% fetal bovine serum and 1% penicillin/streptomycin at 37° C. in a humidified atmosphere containing 95% air and 5% CO2. The cell culture medium was replaced every 2 or 3 days with fresh medium containing serum and antibiotic. Cells were reseeded when the cell monolayers became confluent. For the experiments, cells at passages 15-27 were seeded in 6-well plates at 1 million cells per well. 5 mM test solutions were prepared in DMSO. NSC 34 monolayers above 80% confluency were treated with 2 μl of test compound (final concentration 5 μM) for 0, 1, 2, 4, 8, 12, and 24 hours. […] Hexane extracts were dried under nitrogen and were quantitatively transferred to a deactivated glass micro insert using methylene chloride and dried under nitrogen. […] Protein concentration was determined using the Pierce BCA protein assay kit. The derivatized samples were analyzed using GC/MS by single ion monitoring (Agilent 5975 GC/MSD; Agilent Technologies, Palo Alto, Calif.). […] Samples were analyzed using helium as the carrier gas (head pressure of 27 psi), 1 μl splitless injection, the injector temperature was 275° C., the column temperature was maintained at 220° C. for 2 min followed by a gradient of 25° C./min to 300° C., and remained at that temperature for 10 min. […]

Compound	IC50 [1] [µM]	cell-uptake compared with that of α-tocopherol [2]	antioxidant potential, times that of α-tocopherol (AT) ([1]; rat liver microsomes treated with 200 μM TBHP)
Cc1c(C)c2c(c(C)c1O)CC[C@@](C)(CCC[C@H](C)CCC[C@H](C)CCCC(C)C)O2 [AT, α-tocopherol, reference compound]	6.78	–	–
CC(C)=CCC[C@@H](C)CCC/C(C)=C/CC[C@]1(C)CCc2cc(O)cc(C)c2O1 [δ-tocoflexol, (2R,8′S)-δ-tocoflexol]	1.35	almost double	> 5 times and 5 times

Reference: patent publication US9309547B2, “Methods for making tocoflexols and analogues thereof” (The Board of Trustees of the University of Arkansas, priority 2012, dated 2016)
